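Results reflect a 48-hour exposure of cells in 96-well plates to compound at five concentrations. At the GI50, growth is halved. TGI denotes the concentration required for complete inhibition of growth.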
What was measured:
Assay in all cases: growth of human tumour cells (NCI), 48 h
U251 CNS = system: U251 CNS
IGROV1 ovarian = system: IGROV1 ovarian
KM12 colon = system: KM12 colon
HCT-116 colon = system: HCT-116 colon
HCC-2998 colon = system: HCC-2998 colon
HCT-15 colon = system: HCT-15 colon
HOP-62 NSCLC = system: HOP-62 NSCLC
HOP-92 NSCLC = system: HOP-92 NSCLC
K-562 leukemia = system: K-562 leukemia
MDA-MB-435 = system: MDA-MB-435

| SMILES | GI50 (U251 CNS) [µM] | TGI (U251 CNS) [µM] | GI50 (IGROV1 ovarian) [µM] | TGI (IGROV1 ovarian) [µM] | GI50 (KM12 colon) [µM] | TGI (KM12 colon) [µM] | GI50 (HCT-116 colon) [µM] | TGI (HCT-116 colon) [µM] | GI50 (HCC-2998 colon) [µM] | TGI (HCC-2998 colon) [µM] | GI50 (HCT-15 colon) [µM] | TGI (HCT-15 colon) [µM] | GI50 (HOP-62 NSCLC) [µM] | TGI (HOP-62 NSCLC) [µM] | GI50 (HOP-92 NSCLC) [µM] | TGI (HOP-92 NSCLC) [µM] | GI50 (K-562 leukemia) [µM] | TGI (K-562 leukemia) [µM] | GI50 (MDA-MB-435) [µM] | TGI (MDA-MB-435) [µM] |
| --- | --- | --- | --- | --- | --- | --- | --- | --- | --- | --- | --- | --- | --- | --- | --- | --- | --- | --- | --- | --- |
| COC(=O)Nc1nc2ccc(S(=O)(=O)c3ccc(NC(=O)Nc4cc(C(F)(F)F)ccc4F)cc3)cc2[nH]1 | > 25 | > 25 | > 25 | > 25 | > 21.1 | > 25 | > 25 | > 25 | > 25 | > 25 | > 25 | > 25 | > 25 | > 25 | > 25 | > 25 | > 25 | > 25 | > 25 | > 25 |
| CN(C)c1ncnc2c1ccn2C1OC(CO)C(O)C1O (stereo not drawn) | > 100 | > 100 | 0.237 | 4.22 | 34.9 | > 100 | 2.97 | > 100 | 1.89 | 18.1 | 1.1 | > 66.2 | 1.71 | > 100 | 0.883 | 5.64 | 1.4 | > 100 | 2.55 | > 29.1 |
| CCCCN(CCCC)CCC(O)c1cc2ccc(C(F)(F)F)cc2c2cc(C(F)(F)F)ccc12 (stereo not drawn) | 1.79 | 3.75 | 3.47 | 14.5 | 2.93 | 9.24 | 1.59 | 3.04 | 2.08 | 4.58 | 2.15 | 7.29 | 2.2 | 5.68 | 1.49 | 4.26 | 2.06 | 5.59 | 2.13 | 4.59 |
| CCCC(CCC)C(=O)OCC1(CO)C/C(=C\c2ccc(C(F)(F)F)cc2)C(=O)O1 (stereo not drawn) | 7.61 | 22.5 | 14.8 | 33 | 13.7 | 28.6 | 12.6 | 25.6 | 10.9 | 24 | 12.8 | 26.9 | 2.34 | 15.1 | – | – | 0.823 | 20.6 | 0.304 | 19.3 |
| CNc1ncc2cc(Oc3ccc(F)cc3F)c(=O)n(C)c2n1 | > 25 | > 25 | > 25 | > 25 | > 25 | > 25 | > 25 | > 25 | > 25 | > 25 | > 25 | > 25 | > 25 | > 25 | 3.82 | > 25 | > 25 | > 25 | > 25 | > 25 |
| CCC(=O)c1c(C(F)(F)F)n([O-])c2ccccc2[n+]1=O | 2.16 | 13 | 1.38 | > 100 | 1.86 | 5.86 | 1.56 | 8.83 | 1.68 | 6.31 | 1.09 | 4.88 | 0.7 | 3.54 | 1.5 | 6.08 | 1.35 | 33.3 | 2.41 | 10.4 |
| CC1=NN(C(=O)c2nn(-c3ccc(Cl)cc3)cc2O)C(=O)C1 | 0.734 | > 100 | 0.505 | 41 | 4.52 | > 100 | 0.743 | > 100 | 3.37 | > 100 | 0.845 | > 100 | 1.13 | > 77.6 | – | – | 0.501 | > 100 | 4.12 | > 100 |
| COc1cc2c(cc1OCCCCCn1c3ccccc3c3ccccc31)N=C[C@@H]1CCCN1C2=O | 1.59 | 3.19 | 2.08 | 4.69 | 1.96 | 3.74 | 1.65 | 3.33 | 1.71 | 3.18 | 1.67 | 3.48 | 1.8 | 3.91 | – | – | – | – | 1.69 | 3.29 |
| O=C1/C(=C\c2ccccc2)c2ccccc2N1/N=C\c1ccccc1 | – | > 100 | – | > 100 | – | > 100 | – | > 100 | – | > 100 | – | > 100 | – | > 100 | – | > 100 | – | > 100 | – | – |
| O=CN1N=C(c2ccc(Nc3ccnc4cc(Cl)ccc34)cc2)CC1c1ccc(Cl)cc1 (stereo not drawn) | 0.511 | > 100 | 5.01 | > 100 | 0.538 | > 100 | 0.499 | > 100 | 1.61 | 8.11 | 0.58 | > 100 | 0.859 | > 100 | > 100 | > 100 | – | – | 0.198 | 0.48 |
| CC(=O)n1c(-c2ccc(Cl)c(Cl)c2)cn(-c2ccc(Cl)cc2)c1=O | 16.3 | 37.5 | – | – | 67 | > 100 | 19.6 | > 100 | 91.5 | > 100 | 63.7 | > 100 | 20.4 | 43.8 | 13.9 | 30.2 | 24.1 | 80.5 | 84.1 | > 100 |
| O=c1[nH]nc(-c2ccccc2)c2c(-c3ccccc3)onc12 | 0.517 | > 100 | 0.615 | > 100 | 0.389 | > 39.6 | 0.333 | > 100 | 39.7 | > 96.3 | 0.554 | > 100 | – | > 100 | 0.933 | > 58.3 | 0.385 | > 100 | – | – |
| Cc1ccc([N+](=O)[O-])c2c(NCCC[N+](C)(C)[O-])ccnc12 | – | > 100 | – | 67.3 | – | > 100 | – | > 100 | – | 58.9 | – | – | – | > 100 | – | > 100 | – | > 100 | – | > 100 |

From PubChem BioAssay (NCI)
